Drawing on US10800741B2 (ANCUREALL PHARMACEUTICAL (SHANGHAI) CO., LTD., priority 2017, dated 2020), this text covers IC50 for six molecules.

Molecules are shown by their SMILES. Bounds are passed on as bounds.

Holding throughout (assay type): cell-based, Human
One assay relates to Kasumi-1 (KIT N822K). In words: In vitro growth inhibition of Kasumi-1 tumor cells (MTT/CCK8). The following applies: Homo sapiens, Kasumi 1; in vitro growth inhibition (or induction of apoptosis), cells cultured 3 to 5 days, MTT (CCK8); read-out: IC50 Kasumi-1 (KIT N822K). The source says: (§1) Tumor cell lines are an effective model for studying in vitro tumor growth inhibition. In the present invention, a representative tumor cell line was selected to determine the cell growth inhibition activity of the present compound. All cell lines used were from ATCC, DSMZ, and cell banks of the Chinese Academy of Sciences. Cell culture conditions and methods were in accordance with the requirements of each cell line. Cells were subcultured in vitro for no more than 3 generations each time, and as required, single-clone purification and identification of cell lines could be carried out.
(§2) The cell culture media used were RPMI1640 (Gibco), DMEM (Gibco), MEM (Gibco), L15 (Gibco), IMDM (Gibco), McCOY'S5A, and William's (Gibco). 5-20% fetal bovine serum (Gibco), 1% double antibiotic, 2 mM glutamine, or 1 mM sodium pyruvate were added. The names, species, major gene characteristics, culture media and cell sources of the cell lines used are shown in table 1, wherein “amp” refers to gene amplification. “+++” refers to gene overexpression. The main genetic characteristics of cells were obtained from the COSMIC Cell Lines Project and related research papers, respectively.
(§3) Adherent cells were digested with 0.25% trypsin-EDTA (Gibco). Suspension culture cells were collected by centrifugation (1700 rpm, 3 minutes). The supernatant was discarded and the cells were counted. According to each cell growth cycle, different concentrations of cells were prepared (5˜10×10^4 cells per ml), and inoculated to 96-well plates (Corning), with 100 μl per well, and incubated overnight at 37° C., 5% CO2. The next day, the test compound was added to the cultured cells (2 wells in parallel). The final concentration of the solvent was less than 1/1,000. The cells were further cultured for 3 to 5 days and assayed by MTT.
(§4) The compound was stored at a concentration of 10 mM at −20° C. and diluted to 2- or 10-fold series prior to use. BGJ398 and AC220 were synthesized according to the methods of WO2006420A1 and US2007232604A1, respectively.
(§5) The adherent cells were taken out from the cell culture medium, and immediately added to a freshly prepared complete medium containing 10% CCK8 (5% FBS), 100 ul per hole. The suspended cells were directly added to a CCK8 reagent until reaching a final concentration of 10% and cultured for 1 to 4 hours.
(§6) T=optical density of drug-treated cell wells−optical density of blank control wells; T0=optical density of cell wells before drug treatment−optical density of blank control wells; C=optical density of solvent control wells−optical density of blank control wells. […] The experiments were repeated 1 to 3 times and a statistical analysis of data was conducted.

In a further assay the test system is KATO III (FGFR2 amp). Description: In vitro growth inhibition of KATO III tumor cells (MTT/CCK8). The following applies: Homo sapiens, KATO III; in vitro growth inhibition (or induction of apoptosis), cells cultured 3 to 5 days, MTT (CCK8); read-out: IC50 KATO III (FGFR2 amp).
Excerpt: as §1, §2, §3, §4, §5, §6

In another assay the test system is H1703 (PDGFRa amp). In words: In vitro growth inhibition of H1703 tumor cells (MTT/CCK8). The following applies: Homo sapiens, NCI-H1703; in vitro growth inhibition (or induction of apoptosis), cells cultured 3 to 5 days, MTT (CCK8); read-out: IC50 H1703 (PDGFRa amp).
Excerpt: as §1, §2, §3, §4, §5, §6

The next assay has as its system MOLM-13 (FLT3-ITD). Description: In vitro growth inhibition of MOLM-13 tumor cells (MTT/CCK8). To be noted: Homo sapiens, MOLM-13; in vitro growth inhibition (or induction of apoptosis), cells cultured 3 to 5 days, MTT (CCK8); read-out: IC50 MOLM-13 (FLT3-ITD).
Excerpt: as §1, §2, §3, §4, §5, §6

Another assay relates to KCL-22 (BCR-ABL). Description: In vitro growth inhibition of KCL-22 tumor cells (MTT/CCK8). The following applies: Homo sapiens, KCL-22; in vitro growth inhibition (or induction of apoptosis), cells cultured 3 to 5 days, MTT (CCK8); read-out: IC50 KCL-22 (BCR-ABL).
Excerpt: as §1, §2, §3, §4, §5, §6

For another assay, the system named is Hep3B2 (FGFR3/4+++). Description: In vitro growth inhibition of Hep3B2 tumor cells (MTT/CCK8). The following applies: Homo sapiens, Hep3B; in vitro growth inhibition (or induction of apoptosis), cells cultured 3 to 5 days, MTT (CCK8); read-out: IC50 Hep3B2 (FGFR3/4+++).
Excerpt: as §1, §2, §3, §4, §5, §6

A further assay relates to H1581 (FGFR1 amp). Description: In vitro growth inhibition of H1581 tumor cells (MTT/CCK8). The following applies: Homo sapiens, NCI-H1581; in vitro growth inhibition (or induction of apoptosis), cells cultured 3 to 5 days, MTT (CCK8); read-out: IC50 H1581 (FGFR1 amp).
Excerpt: as §1, §2, §3, §4, §5, §6

The next assay deals with Karpas 299 (NPM-ALK). In words: In vitro growth inhibition of Karpas 299 tumor cells (MTT/CCK8). The following applies: Homo sapiens, KARPAS-299; in vitro growth inhibition (or induction of apoptosis), cells cultured 3 to 5 days, MTT (CCK8); read-out: IC50 Karpas 299 (NPM-ALK).
Excerpt: as §1, §2, §3, §4, §5, §6

For `CNC(=O)c1cc2c(Oc3ccc(NC(=O)Nc4cc(C(C)(C)C)n[nH]4)c(Cl)c3)ccnc2cc1OCCOC` [Compound 58, 4-{4-[3-(5-tert-butyl-2H-pyrazol-3-yl)-ureido]-3-chloro-phenoxy}-7-(2-methoxy-ethoxy)-quinolin-6-carboxylic acid methylamide], the IC50 in the assay with Kasumi-1 (KIT N822K) came out at 0.0103 µM; in the assay with KATO III (FGFR2 amp) it was 0.00058 µM; in the assay on H1703 (PDGFRa amp) it was 0.0148 µM; with MOLM-13 (FLT3-ITD) it was 0.00233 µM; in the assay with KCL-22 (BCR-ABL), 0.00311 µM; with Hep3B2 (FGFR3/4+++), 0.0182 µM. The IC50 was 0.0055 µM in the assay on H1581 (FGFR1 amp) and 0.417 µM with Karpas 299 (NPM-ALK).
Consider `CN(C)CCOc1cc2nccc(Oc3ccc(NC(=O)Nc4cc(C(C)(C)C)n[nH]4)c(Cl)c3Cl)c2cc1C(N)=O` [Compound 93, 4-{4-[3-(5-tert-butyl-2H-pyrazol-3-yl)-ureido]-2,3-dichloro-phenoxy}-7-(2-dimethylamino-ethoxy)carboxamide], for which the IC50 in the assay with Kasumi-1 (KIT N822K) turned out to be 0.00829 µM; in the assay on KATO III (FGFR2 amp), 0.00353 µM; in the assay with H1703 (PDGFRa amp), 0.0793 µM; with MOLM-13 (FLT3-ITD) it was 0.0103 µM; in the assay on KCL-22 (BCR-ABL) it was 0.00612 µM; in the assay on Hep3B2 (FGFR3/4+++), 0.00984 µM. The IC50 was 0.21 µM with H1581 (FGFR1 amp) and 0.178 µM in the assay with Karpas 299 (NPM-ALK).
On to `COc1cc2nccc(Oc3ccc(NC(=O)Nc4cc(C(C)(C)C)on4)c(C(F)(F)F)c3)c2cc1C(N)=O` [Compound 4], for which the IC50 in the assay on Kasumi-1 (KIT N822K) came to 0.0145 µM; in the assay on KATO III (FGFR2 amp), 0.00293 µM; in the assay on H1703 (PDGFRa amp), 0.0218 µM; in the assay with MOLM-13 (FLT3-ITD), 0.122 µM; with KCL-22 (BCR-ABL), 0.0104 µM; in the assay with Hep3B2 (FGFR3/4+++) it was 0.0278 µM. In addition, the values for the IC50 with H1581 (FGFR1 amp) and in the assay with Karpas 299 (NPM-ALK) were 0.0132 µM and 0.756 µM, respectively.
As to `COc1cc2nccc(Oc3ccc(NC(=O)Nc4cc(C(C)(C)C)n[nH]4)c(Cl)c3)c2cc1NC(=O)C1CCCC1` [Compound 65, cyclopentane carboxylic acid (4-{4-[3-(5-tert-butyl-2H-pyrazol-3-yl)-ureido]-3-chloro-phenoxy}-7-methoxy-quinolin-6-yl)-amide], the IC50 in the assay on Kasumi-1 (KIT N822K) is 0.568 µM; in the assay on KATO III (FGFR2 amp) it was 0.011 µM; in the assay with H1703 (PDGFRa amp), 0.247 µM; in the assay on MOLM-13 (FLT3-ITD) it was 0.072 µM; in the assay with KCL-22 (BCR-ABL), 0.163 µM; in the assay with Hep3B2 (FGFR3/4+++), 0.16 µM. The results for the IC50 with H1581 (FGFR1 amp) and in the assay with Karpas 299 (NPM-ALK) were 0.218 µM and greater than 1 µM, respectively.
Regarding `COc1cc2nccc(Oc3ccc(NC(=O)Nc4cc(C(C)(C)C)n[nH]4)c(C(F)(F)F)c3)c2cc1C(N)=O` [Compound 33, 4-{4-[3-(5-tert-butyl-2H-pyrazol-3-yl)-ureido]-3-trifluoromethyl-phenoxy}-7-methoxyquinolin-6-carboxamide], the IC50 in the assay with Kasumi-1 (KIT N822K) worked out at 0.0464 µM; with KATO III (FGFR2 amp) it was 0.00071 µM; in the assay on H1703 (PDGFRa amp) it was 0.073 µM; with MOLM-13 (FLT3-ITD), 0.0281 µM; in the assay on KCL-22 (BCR-ABL) it was 0.0257 µM; with Hep3B2 (FGFR3/4+++), 0.13 µM. For the same molecule, the values for the IC50 in the assay with H1581 (FGFR1 amp) and in the assay with Karpas 299 (NPM-ALK) were 0.0498 µM and 0.632 µM, respectively.
As for `CC(C)(C)c1cc(NC(=O)Nc2ccc(Oc3ccnc4c(F)cccc34)cc2Cl)no1` [Compound 113, 1-(5-tert-butyl-isoxazol-3-yl)-3-[2-chloro-4-(8-fluoro-quinolin-4-yloxy)-phenyl]-urea], the IC50 with Kasumi-1 (KIT N822K) was greater than 1 µM; in the assay on KATO III (FGFR2 amp) it was 0.498 µM; with H1703 (PDGFRa amp) it was 0.568 µM; with MOLM-13 (FLT3-ITD), greater than 0.5 µM; in the assay on KCL-22 (BCR-ABL), greater than 1 µM; in the assay on Hep3B2 (FGFR3/4+++), greater than 1 µM. Also, the IC50 in the assay on H1581 (FGFR1 amp) and with Karpas 299 (NPM-ALK) was greater than 1 µM in each case.
